Results on 87 molecules are retold here after a melting point compilation (Tetko et al.; mined from patent text by program, amines drawn as free bases though some values may be those of a salt).

Some results are limits rather than exact numbers.

`Cc1c(-c2ccccc2)oc2c(CN(C)CCCl)cccc2c1=O`: the melting point (usually the temperature, or range, at which the solid turns liquid) lay within 118 to 120 °C.

Take `CCOC(=O)C(CC(=S)c1ccc(-c2ccccc2)cc1)SC(C)=O` (configuration not stated): the melting point fell in the range of 71.5 to 72.5 °C.

Regarding `c1ccc2c(C3CCNCC3)n[nH]c2c1`, the melting point lay in the range of 213 to 215 °C.

`CC(C)NC(=O)C(C#N)=Cc1cc(O)c(O)c([N+](=O)[O-])c1`: the melting point was in the range of 243 to 245 °C.

With `CCN(CC)C(=O)N[C@H]1CC[C@H](NC(=O)N(CC)CC)CC1`, the melting point was in the range of 225 to 228 °C.

As for `Nc1ccc([C@@H](O)CNC[C@H]2CCc3cc(NS(=O)(=O)c4ccc(-n5nnn(CCCC6CCCCC6)c5=O)cc4)ccc3O2)cn1`, the melting point is 94 to 95 °C.

For `CCN(CC)CCOc1cccc2c1c1cccc(F)c1n2Cc1ccc(F)cc1`, the melting point fell in the range of 59 to 60 °C.

For `CCc1[nH]n(C2CCCC2)c2nc(-c3cccc(OCc4ccncc4)c3)nc(=O)c1-2`, the melting point lay in the range of 230 to 232 °C.

`CCN(C(=O)c1ccccc1[Si](C)(C)C)C(OC)C(C)(C)C` (configuration not stated) showed a melting point of 76 to 78 °C.

The molecule `FC(F)(F)c1ccc(-c2cc(Oc3cccc4cnccc34)nnc2Oc2cccc3cnccc23)cc1` returned a melting point of 197 to 199 °C.

Molecule `Cc1ccsc1C(Cc1ccccc1N)N(C)C` (configuration not stated) had a melting point of 75 to 77 °C.

Take `CCC12CCC3C4=C(CCC3C1C=CC2=O)CC(OC)=CC4` (configuration not stated): the melting point was 89 to 91 °C.

`CNC(=O)C1CN(CC(=O)Nc2c(Cl)cc(C(C)=O)cc2Cl)CCN1CCCCN(c1ccc(F)cc1)c1ccc(F)cc1` (configuration not stated): the melting point worked out at 85 °C.

`CC(C)(C)OC(=O)Oc1ccc(C(=O)c2ccc(OC(=O)OC(C)(C)C)cc2)cc1`: the melting point was 141 to 143 °C.

`Cn1cc(-c2ccccc2)c(=O)c(-c2ccc(Br)cc2)c1` came in with a melting point of 172 °C.

For the molecule `O=CC1Cc2cc(C(=O)c3cccs3)c(Cl)c(Cl)c2O1` (configuration not stated), the melting point lay in the range of 162 to 164 °C.

Regarding `O=C(O)Cn1c(-c2ccc(Cl)c(Cl)c2)nc2cccnc21`, the melting point was 248 to 249 °C.

In turn, `C=CC(=O)OCC(CCCCCCCCCCCOc1ccc(-c2cccc(F)c2F)cc1)COC(=O)C=C` had a melting point of 33.4 to 34.4 °C.

On to `CCOC(=O)C1(C(=O)OCC)CCC2(CC1)c1cc(OCC)c(OCC)cc1CCN2C(=O)OCc1ccccc1`, for which the melting point lay in the range of 88.4 to 89.1 °C.

The molecule `COc1ccc2c(c1)c(-c1ccccc1)nc1nnc(C)n12` had a melting point of 251 to 252 °C.

On to `N#Cc1c(Cl)ccc2cc(Cl)cnc12`, for which the melting point is 222 °C.

Take `COC(=O)c1ccc(-c2ccc(C#N)s2)nc1`: the melting point was in the range of 164 to 166 °C.

`CC(=O)Nc1nc(C(F)(F)F)ns1` gave a melting point of 178 °C.

For the molecule `O=C(NCCOCc1ccc(C(=O)c2ccccc2)cc1)Nc1ccccc1`, the melting point lay within 129 to 132 °C.

Take `CC(=O)OCCc1cc2c(s1)SCCc1cc(=O)n(-c3ccc(Cl)cc3)nc1-2`: the melting point was 115 to 117 °C.

For `COc1ccc(-c2csc(Nc3ncccn3)n2)cc1OC`, the melting point is 225 to 228 °C.

`O=C(NCCO)c1cc(F)cc(-c2ccc(F)c3cc(Cc4cccc(C(F)(F)F)c4)sc23)c1`: the melting point fell in the range of 107 to 108 °C.

As for `Oc1ccc2c(c1)ncn2-c1ccc2cccc(Cl)c2n1`, the melting point is above 250 °C.

As to `CC(C)(C)OC(=O)/C=C/c1ccnc(-c2nc(=O)c3ccccc3s2)c1`, the melting point was 196 to 197 °C.

For the molecule `Nc1nc(N)c2cc(CCc3ccc(C(=O)N[C@@H](CCC(=O)O)C(=O)O)cc3)cnc2n1`, the melting point is above 250 °C.

As for `Clc1cc(CBr)c(CBr)cc1Cl`, the melting point lay in the range of 55 to 56 °C.

Molecule `COC(=O)c1cc(-c2nc(COc3ccc(CCl)cc3OC)c(C)o2)ccc1OS(C)(=O)=O` registered a melting point of 146 to 147 °C.

As to `N#Cc1cc(C(=O)N=C(N)N)cc(-n2cccc2)c1`, the melting point fell in the range of 198 to 200 °C.

With `CC(C(O)c1ccc(OCc2ccccc2)c(OCc2ccccc2)c1)N1CCC(n2c(=O)[nH]c3ccccc32)CC1` (configuration not stated), the melting point fell in the range of 146 to 148 °C.

`CN1CCCN(Cc2c(Cl)ccc(C(=O)C3=C(Sc4ccccc4)CCCC3=O)c2Cl)C1=O` displayed a melting point of 140 °C.

The molecule `COc1ccc2cc(C(C)C(=O)OC/C=C\COC(=O)OC(C)O[N+](=O)[O-])ccc2c1` (configuration not stated) displayed a melting point of 76 to 78 °C.

In turn, `CCCCCCCCCCCCCCCCSCCO` showed a melting point of 50 °C.

For `O=c1n(-c2ccccc2)nc2c3c(nc(Cl)n12)CCCC3`, the melting point was 205 to 207 °C.

For the molecule `Cc1c(F)c(Oc2cccc(C(F)(F)F)c2)nc(-c2ccc(C(F)(F)F)cc2)c1F`, the melting point is 87 °C.

For the molecule `COC(=O)/C=C/c1ccc(-c2nc(NC(C)=O)sc2Cc2ccc(S(C)(=O)=O)cc2)cc1`, the melting point fell in the range of 217 to 218 °C.

As for `COC(=O)c1ccc(C(=O)OC)c(S(N)(=O)=O)c1`, the melting point was 165 to 170 °C.

For the molecule `CSc1cc(-n2ncc(-c3ccc(S(C)(=O)=O)cc3)c(-c3ccc(F)cc3)c2=O)ccc1F`, the melting point lay within 105 to 107 °C.

`CC(C)CC(C(=O)O)c1cc(OCC2CC2)c(-c2ccc(C(F)(F)F)cc2)cc1F` (configuration not stated) returned a melting point of 110 to 111 °C.

`Cc1cc(C(=O)NCc2ccc(Br)cc2F)c(OCC(=O)O)cc1F` yielded a melting point of 169 °C.

As to `CNC(=O)Cc1c(C(=O)c2cc(C)ccn2)[nH]c2cc(Cl)ccc12`, the melting point is 231 °C.

In the case of `Cc1cccc(NC(=O)NC(CC(N)=O)C(=O)N(CC(=O)OC(C)(C)C)c2ccccc2)c1` (racemic), the melting point came to 192 °C.

In the case of `COC(=O)CCc1oc2ccc(C#N)cc2c1C(=O)c1ccc(OC)cc1`, the melting point was 95 to 98 °C.

On to `FC(F)(F)c1ccc(CN2CC=C(/C=C/c3ccccc3)CC2)cc1`, for which the melting point was in the range of 125 to 127 °C.

`COc1ccc(F)c2c(O)c3cnccc3cc12`: the melting point is above 210 °C.

On to `COc1cc(Oc2ccc(S(C)(=O)=O)nc2)cc2cc(C3=NCC(CC(=O)NC[C@H](C)O)S3)[nH]c12` (some centres not stated), for which the melting point fell in the range of 185 to 186 °C.

Molecule `CC(=O)Nc1ccc(C(=O)Nc2ccc(C(=O)N3CCCCc4ccccc43)cc2)c(Cl)c1` yielded a melting point of 214 to 243 °C.

Turning to `C=C(C)/C=C(\NC(C)=O)C1(c2ccc(Cl)cc2)CCC1`, the melting point is 120 °C.

Turning to `CC1(C)OC(=O)Nc2ccc(-c3cccc(-c4nccs4)c3)cc21`, the melting point fell in the range of 223 to 224 °C.

As for `O=S1(=O)c2cccc3cccc(c23)N1CCCN1CCN(c2nsc3ccccc23)CC1`, the melting point was in the range of 172 to 173 °C.

In turn, `O=C(O)c1cnc2oc(C(=O)O)cc2c1` registered a melting point above 315 °C.

The molecule `O=c1nc(Cc2ccccc2)nc2n(C3CCCC3)[nH]c(Cc3ccccc3)c1-2` displayed a melting point of 204 to 206 °C.

The molecule `Cn1nc(-c2ccccc2Cl)nc1-c1cccc([N+](=O)[O-])c1Cl` registered a melting point of 124 to 125 °C.

Take `Cc1ccc([N+](=O)[O-])c(CO)c1C`: the melting point was in the range of 48 to 51 °C.

As to `CCOC(=O)C(=O)Nc1c([N+](=O)[O-])cc(Cl)cc1C(F)(F)F`, the melting point was 100 to 101 °C.

In turn, `COc1c(OCCn2c([N+](=O)[O-])cnc2C)cnc(CNc2nc(C)nc(C)c2Cl)c1C` registered a melting point of 182 to 184 °C.

For the molecule `O=C(O)c1ccc(C=Cc2ccccc2)cc1`, the melting point amounted to 252 °C.

On to `O=C(/C=C/c1ccc(S(=O)(=O)N2CCN(C(c3ccc(F)cc3)c3ccc(F)cc3)CC2)cc1)NO`, for which the melting point lay in the range of 125 to 126 °C.

The molecule `CNc1cncc(C(=O)O)c1` displayed a melting point of 239 to 242 °C.

`CC1CC(C)N(CCCNC(=O)CN2CCCC2=O)C(C)(C)C1` (configuration not stated): the melting point was in the range of 85 to 87 °C.

For `O=C(O)CCc1ccc2c(c1)oc1ccc(Cl)cc12`, the melting point was 174 to 178 °C.

`O=c1[nH]c2cc(Br)ccc2c(=O)o1`: the melting point was in the range of 280 to 281 °C.

For the molecule `Cc1noc(NS(=O)(=O)c2ccc(C(F)(F)F)cc2)c1Br`, the melting point is 155 to 158 °C.

As to `CCOCC(=O)Nc1c(NCC(C)C)cc(C)n2nnnc12`, the melting point lay within 182 to 185 °C.

`COc1ccc2c(c1)CC(C(F)(F)F)N2C(=O)Nc1ccc(Oc2cccnc2)nc1` (configuration not stated) gave a melting point of 202 to 204 °C.

On to `COc1ccc(C(C)=NOCCOc2ccc(CC3SC(=O)NC3=O)cc2)cn1` (configuration not stated), for which the melting point was in the range of 148 to 149 °C.

Molecule `CC(C)C[C@H](NC(=O)c1ccc2c(c1)Nc1ccccc1S2)C(=O)N[C@H]1CCOC1OC(=O)CC(C)(C)C` (some centres not stated) registered a melting point of 111 to 113 °C.

For `COc1cc2ncc(C#N)c(Nc3cccc(Br)c3)c2cc1OC`, the melting point was 224 to 228 °C.

As to `N#Cc1ccc(C2=NOC3(CCN(C(=O)CCC(=O)O)CC3)C2)cc1`, the melting point fell in the range of 167 to 170 °C.

Consider `CC(=O)OC1CC2=CCC3C(CCC4(C)C(C(C)CCCC(C)C)CCC34)C2(C)CC1F` (configuration not stated), for which the melting point lay within 116 to 119 °C.

With `CC(C)(C)OC(=O)NC1N=C(c2ccccc2F)c2ccccc2N(CCO)C1=O` (racemic), the melting point amounted to 200 °C.

For the molecule `NC1=C(c2cccc(C(F)(F)F)c2)C(=O)C(c2ccccc2)C1` (configuration not stated), the melting point was 205 to 206 °C.

With `OCCC1(c2ccccn2)CCNC1` (configuration not stated), the melting point lay in the range of 50 to 55 °C.

`CC(C)(C)COC1CCC(=O)N1C(=O)c1ccccc1` (configuration not stated) had a melting point of 83 to 85 °C.

In turn, `CON(C)S(=O)(=O)c1ccccc1S(=O)(=O)NC(=O)n1nc(OCC(F)(F)F)n(C)c1=O` displayed a melting point of 183 °C.

`Fc1cc(CNC(=S)NCC(F)(F)F)ccc1OCC(F)(F)F` displayed a melting point of 88 to 90 °C.

In turn, `O=C(O)c1cccc2c1CCc1ccc(F)cc1S2` showed a melting point of 209 to 211 °C.

`CCN(c1ccc(SC)cc1C#N)S(=O)(=O)c1ccc(C)cc1` showed a melting point of 136 to 137 °C.

With `COc1cc(OC)c(C(C)=O)c(O)c1CC=C(C)C`, the melting point lay in the range of 110 to 111 °C.

For `O=[N+]([O-])c1c(-c2cc(Cl)cc(Cl)c2)[nH]c2c(Cl)cc(Cl)cc12`, the melting point fell in the range of 272 to 273 °C.

In turn, `Cc1ccc(C(=O)NC(NC(=S)Nc2ccccc2F)C(F)(F)F)cc1` (configuration not stated) gave a melting point of 197 to 198 °C.

Consider `O=C(Cn1c(-c2ccc(C(F)(F)F)cc2)nc2cccnc21)NCc1ccccc1`, for which the melting point fell in the range of 224 to 225 °C.

In turn, `C[Si](C)(C)CCOCn1ccc(=O)[nH]c1=O` came in with a melting point of 120 to 122 °C.
